Test results taken from ChEMBL document CHEMBL1201862, “PubChem BioAssay data set” (2004).
Several values for one entry are separate records, joined by “and”; a condition that tells them apart may be missing. Identical values can stand only once.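 Results reflect a 48-hour exposure of cells in 96-well plates to compound at five concentrations. The concentration for 50% growth inhibition is given as GI50.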 Activity calls are given as the source filed them. No stated cut-off is given here; in the data, active = GI50 up to about 1.1 µM and inactive = higher.

Tests used:
Assay in all cases: DTP human tumour cell line panel, 48 h
[1] = system: NCI-H226
[2] = system: SR
[3] = system: UACC-257
[4] = system: NCI-H522
[5] = system: HCC 2998
[6] = system: HOP-92
[7] = system: HL-60
[8] = system: SNB-78
[9] = system: NCI-H23
[10] = system: SF-539
[11] = system: SK-MEL-5
[12] = system: RPMI-8226
[13] = system: KM12
[14] = system: LXFL 529
[15] = system: UACC-62
[16] = system: Malme-3M
[17] = system: OVCAR-8
[18] = system: SN12C
[19] = system: A549
[20] = system: HT-29
[21] = system: SK-OV-3
[22] = system: OVCAR-5
[23] = system: U-251
[24] = system: A498
[25] = system: HCT-15
[26] = system: TK-10
[27] = system: DMS-273
[28] = system: SNB-19
[29] = system: EKVX
[30] = system: SNB-75
[31] = system: HOP-62
[32] = system: MOLT-4
[33] = system: IGROV-1
[34] = system: RXF 393
[35] = system: HCT-116
[36] = system: LOX IMVI
[37] = system: OVCAR-3
[38] = system: DLD-1
[39] = system: SK-MEL-2
[40] = system: UO-31
[41] = system: CAKI-1
[42] = system: KM-20L2
[43] = system: HOP-18
[44] = system: 786-0
[45] = system: SW-620
[46] = system: DMS-114
[47] = system: CCRF-CEM
[48] = system: K562
[49] = system: SK-MEL-28
[50] = system: NCI-H460
[51] = system: SF-268
[52] = system: ACHN
[53] = system: SF-295
[54] = system: M14
[55] = system: COLO 205
[56] = system: XF498
[57] = system: BT-549
[58] = system: Hs-578T
[59] = system: PC-3
[60] = system: MDA-MB-435
[61] = system: NCI/ADR-RES
[62] = system: M19-MEL
[63] = system: MDA-N
[64] = system: OVCAR-4

N#CC(C(=O)C(=O)Nc1ccc(Cl)c(Cl)c1)c1ccc(Cl)cc1 (stereo unspecified)
GI50 [1]: > 100 µM (inactive)
GI50 [2]: 51.9 µM (inactive)
GI50 [3]: > 100 µM (inactive)
GI50 [4]: 25.2 µM (inactive)
GI50 [5]: 51.9 µM (inactive)
GI50 [6]: 36.4 µM (inactive)
GI50 [7]: 47.2 µM (inactive)
GI50 [8]: > 100 µM (inactive)
GI50 [9]: > 100 µM (inactive)
GI50 [10]: > 100 µM (inactive)
GI50 [11]: 74.8 µM (inactive)
GI50 [12]: 35.2 µM (inactive)
GI50 [13]: > 100 µM (inactive)
GI50 [14]: 77.1 µM (inactive)
GI50 [15]: 30.5 µM (inactive)
GI50 [16]: 97.3 µM (inactive)
GI50 [17]: > 100 µM (inactive)
GI50 [18]: 91 µM (inactive)
GI50 [19]: 97.3 µM (inactive)
GI50 [20]: 69.2 µM (inactive)
GI50 [21]: > 100 µM (inactive)
GI50 [22]: > 100 µM (inactive)
GI50 [23]: 40.8 µM (inactive)
GI50 [24]: > 100 µM (inactive)
GI50 [25]: 32.5 µM
GI50 [26]: > 100 µM (inactive)
GI50 [27]: > 100 µM (inactive)
GI50 [28]: 65.5 µM (inactive)
GI50 [29]: > 100 µM (inactive)
GI50 [30]: > 100 µM (inactive)
GI50 [31]: > 100 µM (inactive)
GI50 [32]: 64.7 µM (inactive)
GI50 [33]: > 100 µM (inactive)
GI50 [34]: > 100 µM (inactive)
GI50 [35]: 23.6 µM (inactive)
GI50 [36]: 16.7 µM (inactive)
GI50 [37]: 37.7 µM (inactive)
GI50 [38]: 44.1 µM (inactive)
GI50 [39]: 34.2 µM (inactive)
GI50 [40]: 47.1 µM (inactive)
GI50 [41]: > 100 µM (inactive)
GI50 [42]: > 100 µM (inactive)
GI50 [43]: 41 µM (inactive)
GI50 [44]: 41 µM (inactive)
GI50 [45]: 16 µM (inactive)
GI50 [46]: 22.9 µM (inactive)
GI50 [47]: 48.1 µM (inactive)
GI50 [48]: 23.4 µM (inactive)
GI50 [49]: > 100 µM (inactive)
GI50 [50]: 32.1 µM (inactive)
GI50 [51]: > 100 µM (inactive)
GI50 [52]: 83 µM (inactive)
GI50 [53]: 87.9 µM (inactive)
GI50 [54]: > 100 µM (inactive)
GI50 [55]: 45.1 µM (inactive)
GI50 [56]: 61 µM (inactive)

COC1=C(N)C(=O)c2nc(-c3nc(C(=O)O)c(C)c(-c4ccc(OC)c(OC)c4O)c3N)ccc2C1=O [STREPTONIGRIN]
GI50 [1]: < 10 nM (active) and 5.73 nM (active)
GI50 [3]: 7.87 nM (active) and < 10.7 nM (active)
GI50 [5]: 5.65 nM (active) and < 10.9 nM (active)
GI50 [8]: 19.4 nM (active) and < 10 nM (active)
GI50 [57]: 0.00526 µM (active)
GI50 [11]: < 10 nM (active) and 5.81 nM (active)
GI50 [14]: 0.01 µM (active)
GI50 [18]: 0.00785 µM (active)
GI50 [19]: 0.00505 µM (active)
GI50 [21]: 0.00826 µM (active)
GI50 [58]: < 0.01 µM (active)
GI50 [59]: 0.0071 µM (active)
GI50 [24]: 8.11 nM (active) and 12.6 nM (active)
GI50 [27]: < 0.01 µM (active)
GI50 [60]: < 10 nM (active) and 8.59 nM (active)
GI50 [35]: 0.00619 µM (active)
GI50 [36]: 0.00581 µM (active)
GI50 [61]: 0.00893 µM (active)
GI50 [38]: 0.0131 µM (active)
GI50 [62]: 0.01 µM (active)
GI50 [42]: 10 nM (active) and 19 nM (active)
GI50 [43]: < 0.01 µM (active)
GI50 [45]: 6.03 nM (active) and 10 nM (active)
GI50 [46]: < 0.01 µM (active)
GI50 [47]: < 10 nM (active) and 6.01 nM (active)
GI50 [63]: 0.00792 µM (active)
GI50 [56]: < 0.01 µM (active)

CC(=O)Nc1ccc(C(=O)NN2C(=O)C(Cl)C2c2cc(Br)cc(Br)c2O)cc1 (stereo unspecified)
GI50 [1]: > 100 µM (inactive)
GI50 [2]: > 100 µM (inactive)
GI50 [3]: > 100 µM (inactive)
GI50 [4]: > 100 µM (inactive)
GI50 [64]: > 100 µM (inactive)
GI50 [5]: > 100 µM (inactive)
GI50 [6]: > 100 µM (inactive)
GI50 [7]: > 100 µM (inactive)
GI50 [9]: > 100 µM (inactive)
GI50 [10]: > 100 µM (inactive)
GI50 [11]: > 100 µM (inactive)
GI50 [12]: > 100 µM (inactive)
GI50 [13]: > 100 µM (inactive)
GI50 [14]: > 100 µM (inactive)
GI50 [15]: > 100 µM (inactive)
GI50 [16]: > 100 µM (inactive)
GI50 [17]: > 100 µM (inactive)
GI50 [18]: > 100 µM (inactive)
GI50 [19]: > 100 µM (inactive)
GI50 [21]: > 100 µM (inactive)
GI50 [22]: > 100 µM (inactive)
GI50 [23]: > 100 µM (inactive)
GI50 [24]: > 100 µM (inactive)
GI50 [25]: > 100 µM
GI50 [27]: > 100 µM (inactive)
GI50 [28]: > 100 µM (inactive)
GI50 [29]: > 100 µM (inactive)
GI50 [30]: 37.3 µM (inactive)
GI50 [31]: > 100 µM (inactive)
GI50 [32]: > 100 µM (inactive)
GI50 [33]: 52.6 µM (inactive)
GI50 [35]: > 100 µM (inactive)
GI50 [36]: > 100 µM (inactive)
GI50 [37]: > 100 µM (inactive)
GI50 [38]: > 100 µM (inactive)
GI50 [62]: > 100 µM (inactive)
GI50 [39]: > 100 µM (inactive)
GI50 [40]: > 100 µM (inactive)
GI50 [41]: > 100 µM (inactive)
GI50 [42]: > 100 µM (inactive)
GI50 [43]: > 100 µM (inactive)
GI50 [44]: > 100 µM (inactive)
GI50 [45]: > 100 µM (inactive)
GI50 [46]: > 100 µM (inactive)
GI50 [47]: > 100 µM (inactive)
GI50 [48]: > 100 µM (inactive)
GI50 [49]: > 10 µM (inactive)
GI50 [50]: > 100 µM (inactive)
GI50 [51]: > 100 µM (inactive)
GI50 [52]: > 100 µM (inactive)
GI50 [54]: > 100 µM (inactive)
GI50 [55]: > 100 µM (inactive)
GI50 [56]: > 100 µM (inactive)
